Molecules are shown by their SMILES. Read-outs that look alike come from different tables or passages of the source.

One assay concerns HSV-2. Briefly: Inhibition of Herpes Simplex Virus (HSV-2) replication in cell culture. The class given is cell-based. The procedure:
Inhibition of Herpes Simplex Virus (HSV-2) Replication in Cell Culture
BHK-21/C13 cells (ATCC CCL 10) are incubated for two days in 150 cm^2 T-flasks (1.5 x 10^6 cells/flask) with alpha-MEM medium (Gibco Canada Inc., Burlington, Ontario, Canada) supplemented with 8% (v/v) fetal bovine serum (FBS, Gibco Canada Inc.). The cells are trypsinized and then transferred to fresh media in a 24 well plate to give 2.5 x 10^5 cells in 750 µL of media per well. The cells are incubated at 37° for a period of 6 h to allow them to adhere to the plate. Thereafter, the cells are washed once with 500 µL of alpha-MEM supplemented with 0.5% (v/v) FBS and then incubated with 750 µL of the same media (low serum) for 3 days. After this period of serum starvation, the low serum medium is removed and the cells are incubated in 500 µL of BBMT for 2 to 3 hours. {BBMT medium is described by P. Brazeau et al., Proc. Natl. Acad. Sci. USA, 79, 7909 (1982).} Thereafter, the cells are infected with HSV-2 (multiplicity of infection = 0.02 PFU/cell) in 100 µL of BBMT medium. (Note: The HSV-2 used was strain HG-52, see Y. Langelier and G. Buttin, J. Gen. Virol., 57, 21 (1981); the virus was stored at -80°.) Following 1 h of virus adsorption at 37°, the media is removed and the cells are washed with BBMT (3 X 250 µL). The cells in each well are incubated with or without (control) appropriate concentrations of the test agent dissolved in 200 µL of BBMT medium. After 29 h of incubation at 37°, the infected cells are harvested by first freezing the plate at -80°, followed by thawing. The cells in each well are scraped off the surface of the well with the help of the melting ice fragments. After complete thawing, the cell suspensions are collected and each well is rinsed with 150 µL of BBMT medium. The viral sample (suspension plus washing) is sonicated gently for 4 min at 4°. Cell debris are removed by centrifugation (1000 times gravity for 10 minutes at 4°). The supernatant is collected and stored at -80° until determination of viral titer.
Viral titration was performed by a modification of the colorimetric assay method of M. Langlois et al., Journal of Biological Standardization, 14, 201 (1986).
More specifically, in a similar manner as described above, BHK-21/C13 cells are trypsinized and transferred to fresh media in a 96 well microtiter plate to give 20,000 cells in 100 µL of media per well. The cells in the prepared plate are incubated at 37° for 2 h. During that time, the viral sample is thawed and sonicated gently for 15 seconds, and log dilutions of the sample are prepared (1/5 sequential: 50 µL of the sample plus 200 µL of BBMT medium, sequential dilutions being done with a multichannel pipette.
On completion of the above 2 hour incubation of the BHK-21/C13 cells, the media is replaced with alpha-MEM medium supplemented with 3% (v/v) FBS. The cells are now ready to be infected with the various sample dilutions of virus. Aliquots (50 µL) of the various dilutions are transferred into the appropriate wells of the plate. The resulting infected cells are incubated for 2 days at 37°. Then 50 µL of a 0.15% (v/v) solution of neutral red dye in Hank's Balanced Salt Solution (pH 7.3, Gibco Canada Inc.) is added to each well. The prepared plate is incubated for 45 min at 37°. Medium from each well is then aspirated and the cells are washed once with 200 µL of Hank's Balanced Salt Solution. […]

In assay [1] the target is T1, HSV-1 ribonucleotide reductase (Human herpesvirus 1, UniProt P08543).
T1 construct: HSV-1 ribonucleotide reductase (partially purified) was obtained from quiescent BHK-21/C13 cells infected with strain F HSV-1 virus; made in house; host or cells: quiescent BHK-21/C13 cells infected with HSV-1 strain F (virus-encoded enzyme, partially purified)
In words: Inhibition of Herpes Simplex Virus (HSV-1) ribonucleotide reductase. The format is biochemical. From the text: Inhibition of Herpes Simplex Virus (HSV-1) Ribonucleotide Reductase
• a) Preparation of Enzyme HSV-1 ribonucleotide reductase (partially purified) was obtained from quiescent BHK-21/C13 cells infected with strain F HSV-1 virus at 10 plaque forming units/cell as described by E.A. Cohen et al., J. Gen. Virol., 66, 733 (1985). • b) Assay and Results for Exemplified Peptides By following the procedure described by P. Gaudreau et al., J. Biol, Chem., 262, 12413 (1987), the assay results listed in the following Table I were obtained. The assay result for each exemplified compound of formula 1 is expressed as the concentration of the compound producing 50% of the maximal inhibition (IC50) of enzyme activity. The number of units of the enzyme preparation used in each assay was constant, based on the specific activity of the enzyme preparation. The results are relative to the activity obtained in control experiments without the test compound and represent the mean of four assays that varied less than 10% with each other.

The mark [2] stands for this setting: Human alphaherpesvirus 2, Table IV, cell culture assay of example 11, read-out: EC50.
[3] abbreviates: Human alphaherpesvirus 2, Table V, cell culture assay of example 11.
The mark [4] stands for this setting: Human alphaherpesvirus 2, BHK21 (C13), 29 h, Table II, BHK-21/C13 cells, HSV-2 strain HG-52, 0.02 PFU/cell, 29 h incubation, read-out: EC50.
The mark [5] stands for this setting: Table I, partially purified enzyme from BHK-21/C13 cells infected with strain F HSV-1, mean of four assays.

T1 sequence (P08543 whole entry): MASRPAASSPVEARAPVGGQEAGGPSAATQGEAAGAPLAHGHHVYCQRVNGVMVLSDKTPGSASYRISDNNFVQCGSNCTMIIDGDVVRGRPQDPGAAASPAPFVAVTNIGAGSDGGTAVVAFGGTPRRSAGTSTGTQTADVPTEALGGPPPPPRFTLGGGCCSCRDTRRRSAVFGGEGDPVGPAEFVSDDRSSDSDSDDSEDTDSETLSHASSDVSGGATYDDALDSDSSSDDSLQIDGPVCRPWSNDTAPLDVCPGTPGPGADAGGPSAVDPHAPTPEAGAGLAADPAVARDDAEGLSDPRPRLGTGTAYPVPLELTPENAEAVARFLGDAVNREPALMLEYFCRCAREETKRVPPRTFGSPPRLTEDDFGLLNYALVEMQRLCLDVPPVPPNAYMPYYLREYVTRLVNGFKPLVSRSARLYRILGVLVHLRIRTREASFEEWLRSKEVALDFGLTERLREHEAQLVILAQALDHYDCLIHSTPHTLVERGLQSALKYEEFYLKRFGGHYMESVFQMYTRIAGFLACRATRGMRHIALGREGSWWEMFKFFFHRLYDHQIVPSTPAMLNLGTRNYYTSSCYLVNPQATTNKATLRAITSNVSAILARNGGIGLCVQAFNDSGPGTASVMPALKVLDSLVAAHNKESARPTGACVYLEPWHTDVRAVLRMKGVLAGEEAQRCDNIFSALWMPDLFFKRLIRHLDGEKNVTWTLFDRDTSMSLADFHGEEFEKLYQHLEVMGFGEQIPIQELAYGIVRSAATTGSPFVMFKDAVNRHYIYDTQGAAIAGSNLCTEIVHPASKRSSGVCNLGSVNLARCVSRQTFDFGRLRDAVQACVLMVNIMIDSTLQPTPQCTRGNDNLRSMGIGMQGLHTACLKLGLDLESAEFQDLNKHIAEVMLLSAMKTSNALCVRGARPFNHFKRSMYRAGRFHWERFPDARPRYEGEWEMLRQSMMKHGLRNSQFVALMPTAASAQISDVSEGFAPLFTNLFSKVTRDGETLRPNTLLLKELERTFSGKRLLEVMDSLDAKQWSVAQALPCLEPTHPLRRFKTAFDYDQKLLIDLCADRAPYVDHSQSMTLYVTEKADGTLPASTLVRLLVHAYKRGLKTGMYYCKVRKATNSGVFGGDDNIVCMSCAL

Usually EC50 stands for the concentration needed to bring the measured effect to its halfway point. What is called IC50 is the concentration that inhibits the measured activity by half. With `CCCC(CCC)NC(=O)NC(C(=O)CC(CC(=O)C(C)(C)C)C(=O)NC(C(=O)NCC(C)CC)C1(C(=O)O)CCCC1)C(C)(C)C` [Pr2CHNHC(O) / NHCH2-(R,S)-CH(Me)Et, Pr2CHNHC(O)-Tbg-CH2-(R)-CH(CH2C(O)CMe3)C(O)-Asp(cyPn)-NHCH2-(R,S)-CH(Me)Et], the half-maximal effective concentration (EC50) with HSV-2 (setting [2]) amounted to 50 µM. For the same molecule, in assay [1] (Table IV, assay of example 10), the IC50 worked out at 0.29 µM.
Taken in the same sequence, the figures for `CCCC(CCC)NC(=O)NC(C(=O)CC(CC(=O)C(C)(C)C)C(=O)NC(C(=O)NCC1CCCCC1)C1(C(=O)O)CCCC1)C(C)(C)C` [Pr2CHNHC(O) / NHCH2-(cyclohexyl), Pr2CHNHC(O)-Tbg-CH2-(R)-CH(CH2C(O)CMe3)C(O)-Asp(cyPn)-NHCH2-(cyclohexyl)] were 47 µM and 0.36 µM.
Regarding `CCCC(CCC)NC(=O)NC(C(=O)CC(CC(=O)C(C)(C)C)C(=O)NC(C(=O)NCC(C)(CC)CC)C1(C(=O)O)CCCC1)C(C)(C)C` [Pr2CHNHC(O) / NHCH2CEt2Me, Pr2CHNHC(O)-Tbg-CH2-(R)-CH(CH2C(O)CMe3)C(O)-Asp(cyPn)-NHCH2CEt2Me], the concentration for a half-maximal effect (EC50) in the assay on HSV-2 (setting [2]) is 18 µM. This molecule also came in with an IC50 in assay [1] (Table IV, assay of example 10) of 0.34 µM.
For `CCCC(CCC)NC(=O)NC(C(=O)CC(CC(=O)C(C)(C)C)C(=O)NC(C(=O)NCC(CC)(CC)CC)C1(C(=O)O)CCCC1)C(C)(C)C` [Pr2CHNHC(O) / NHCH2CEt3, Pr2CHNHC(O)-Tbg-CH2-(R)-CH(CH2C(O)CMe3)C(O)-Asp(cyPn)-NHCH2CEt3], in that order: 19 µM and 0.52 µM.
Taken in the same sequence, the figures for `CCCC(CCC)NC(=O)NC(C(=O)CC(CC(=O)C(C)(C)C)C(=O)NC(C(=O)NCCC(C)(C)C)C1(C(=O)O)CCCC1)C(C)(C)C` [Pr2CHNHC(O) / NHCH2CH2CMe3, Pr2CHNHC(O)-Tbg-CH2-(R)-CH(CH2C(O)CMe3)C(O)-Asp(cyPn)-NHCH2CH2CMe3] were 72 µM and 0.58 µM.
Taken in the same sequence, the figures for `CCCC(CCC)NC(=O)NC(C(=O)CC(CC(=O)C(C)(C)C)C(=O)NC(C(=O)NCC(C)(C)CC)C1(C(=O)O)CCCC1)C(C)(C)C` [Pr2CHNHC(O) / NHCH2CMe2Et, Pr2CHNHC(O)-Tbg-CH2-(R)-CH(CH2C(O)CMe3)C(O)-Asp(cyPn)-NHCH2CMe2Et] were 16 µM and 0.24 µM.
`CCCC(CCC)NC(=O)NC(C(=O)CC(CC(=O)C(C)(C)C)C(=O)NC(C(=O)NCC(C)(C)CCC)C1(C(=O)O)CCCC1)C(C)(C)C` [Pr2CHNHC(O) / NHCH2CMe2Pr, Pr2CHNHC(O)-Tbg-CH2-(R)-CH(CH2C(O)CMe3)C(O)-Asp(cyPn)-NHCH2CMe2Pr]: the EC50 in the assay with HSV-2 (setting [2]) turned out to be 35 µM. Besides, the concentration for half-maximal inhibition (IC50) in assay [1] (Table IV, assay of example 10) is 0.42 µM.
For `CCCC(CCC)NC(=O)NC(C(=O)CC(CC(=O)C(C)(C)C)C(=O)NC(C(=O)NC(C)(C)C(C)(C)C)C1(C(=O)O)CCCC1)C(C)(C)C` [Pr2CHNHC(O) / NHCMe2CMe3, Pr2CHNHC(O)-Tbg-CH2-(R)-CH(CH2C(O)CMe3)C(O)-Asp(cyPn)-NHCMe2CMe3], in that order: 38 µM and 0.51 µM.
On to `CCCC(CCC)NC(=O)NC(C(=O)CC(CC(=O)C(C)(C)C)C(=O)NC(C(=O)NN(CC)C(C)(C)C)C1(C(=O)O)CCCC1)C(C)(C)C` [Pr2CHNHC(O) / NHN(Et)CMe3, Pr2CHNHC(O)-Tbg-CH2-(R)-CH(CH2C(O)CMe3)C(O)-Asp(cyPn)-NHN(Et)CMe3], for which the EC50 in the assay with HSV-2 (setting [2]) came out at 80 µM. The molecule further yielded an IC50 in assay [1] (Table IV, assay of example 10) of 0.22 µM.
For `CCCC(CCC)NC(=O)NC(C(=O)CC(CC(=O)C(C)(C)C)C(=O)NC(C(=O)NNC(C)(C)C)C1(C(=O)O)CCCC1)C(C)(C)C` [Pr2CHNHC(O) / NHNHCMe3, Pr2CHNHC(O)-Tbg-CH2-(R)-CH(CH2C(O)CMe3)C(O)-Asp(cyPn)-NHNHCMe3], in that order: 84 µM and 0.22 µM.
For the molecule `CCCC(CCC)NC(=O)NC(C(=O)CC(CC(=O)C(C)(C)C)C(=O)NC(C(=O)NC(C)C(C)(C)C)C1(C(=O)O)CCCC1)C(C)(C)CC` [Pr2CHNHC(O)-NH-(S)-CH(CMe2Et)-C(O)-CH2-(R)-CH(CH2C(O)CMe3)C(O)-Asp-(cyPn)-NH-(R)-CH(Me)CMe3], in the assay with HSV-2 (setting [3]), the EC50 worked out at 13 µM. Moreover, half-maximal inhibition in assay [1] (Table V, assay of example 10) (IC50) was put at 0.25 µM.
Taken in the same sequence, the figures for `CCCC(CCC)NC(=O)NC(C(=O)CC(CC(=O)C(C)C)C(=O)NC(C(=O)NCC(C)(C)C)C1(C(=O)O)CCCC1)C(C)(C)C` [Pr2CHNHC(O)-Tbg-CH2-(R)-CH(CH2-C(O)CHMe2)C(O)-Asp(cyPn)-NHCH2-CMe3] were 39 µM and 0.36 µM.
In the assay on HSV-2 (setting [3]), `CCCC(CCC)NC(=O)NC(C(=O)CC(CC(=O)C(C)(C)CC)C(=O)NC(C(=O)NCC(C)(C)C)C1(C(=O)O)CCCC1)C(C)(C)C` [Pr2CHNHC(O)-Tbg-CH2-(R)-CH(CH2-C(O)CMe2Et)C(O)-Asp(cyPn)-NHCH2-CMe3] showed a concentration for a half-maximal effect (EC50) of 33 µM. In assay [1] (Table V, assay of example 10), the IC50 turned out to be 0.21 µM.
For `CCCC(CCC)NC(=O)NC(C(=O)CC(CC(=O)C(C)(C)C)C(=O)NC(C(=O)NCC(C)(C)C)C(CCC)C(=O)O)C(C)(C)C` [Pr2CHNHC(O)-Tbg-CH2-(R)-CH(CH2-C(O)CMe3)C(O)-Asp{(R)-Pr}-NHCH2CMe3], in that order: 46 µM and 0.25 µM.
For `C=CCC(C(=O)O)C(NC(=O)C(CC(=O)C(NC(=O)NC(CCC)CCC)C(C)(C)C)CC(=O)C(C)(C)C)C(=O)NCC(C)(C)C` [Pr2CHNHC(O)-Tbg-CH2-(R)-CH(CH2-C(O)CMe3)C(O)-Asp{(R)-allyl}-NHCH2CMe3], in that order: 62 µM and 0.3 µM.
`CCCC(CCC)NC(=O)NC(C(=O)CC(CC(=O)C(C)(C)C)C(=O)NC(C(=O)NCC(C)(C)C)C1(C(=O)O)CCCC1)C(C)(C)C` [Pr2CHNHC(O)-Tbg-CH2-(R)-CH(CH2C(O)-CMe3)C(O)-Asp(cyPn)-NHCH2CMe3]: the EC50 in the assay with HSV-2 (setting [4]) is 24 µM. Further, 0.08 µM corresponded to half-maximal inhibition in assay [1] (setting [5]) (IC50).
Taken in the same sequence, the figures for `CCCC(CCC)NC(=O)NC(C(=O)CC(CC(=O)C(C)(C)C)C(=O)NC(C(=O)NC(CO)CC(C)(C)C)C1(C(=O)O)CCCC1)C(C)(C)C` [Pr2CHNHC(O)-Tbg-CH2-(R)-CH(CH2C(O)-CMe3)C(O)-Asp(cyPn)-γMeLeucinol] were 30 µM and 0.2 µM.
`CCCC(CCC)NC(=O)NC(C(=O)CC(CC(=O)C(C)(C)C)C(=O)NC(C(=O)NC1CCCCC1(C)C)C1(C(=O)O)CCCC1)C(C)(C)C` [Pr2CHNHC(O)-Tbg-CH2-(R)-CH(CH2C(O)CMe3)C(O)-Asp(cyPn)-NH-(2,2-dimethyl-cyclohexyl)]: the EC50 in the assay with HSV-2 (setting [2]) was determined as 24 µM. Besides, the IC50 in assay [1] (Table IV, assay of example 10) turned out to be 0.4 µM.
For `CCCC(CCC)NC(=O)NC(C(=O)CC(CC(=O)C(C)(C)C)C(=O)NC(C(=O)NC1CCCC1(C)C)C1(C(=O)O)CCCC1)C(C)(C)C` [Pr2CHNHC(O)-Tbg-CH2-(R)-CH(CH2C(O)CMe3)C(O)-Asp(cyPn)-NH-(2,2-dimethyl-cyclopentyl)], in that order: 31 µM and 0.38 µM.

The values are drawn from patent EP0560267B1, “Isosteric antiherpes peptide derivatives” (BOEHRINGER INGELHEIM (CANADA) LTD., priority 1992, dated 1993).
